Data reported in patent US20210206758A1, “NAPHTHYRIDINES AS INTEGRIN ANTAGONISTS” (GlaxoSmithKline Intellectual Property Development Limited, priority 2016, published 2021).
Values joined by “and” are separate entries in the source; they are usually repeats but may differ in a detail not shown here. Equal values may be shown once.

Key:
Format in all cases: cell-based
αvβ8 = biological target: T1, αvβ8 (Homo sapiens, UniProt P06756+P26012); test: Cell adhesion assay, K562-αvβ8 (LAP-b1); conditions: K562-αvβ8 cells, ligand LAP-b1, 2 mM MgCl2; for IC50: mean, read-out: αvβ8 pIC50 (mean affinity, cell Adhesion Assay) (converted)
T1 construct: expressed in transfected cells; host or cells: K562
Method: (§1) Reagents and methods utilised are as described [Ludbrook et al, Biochem. J. 2003, 369, 311 and Macdonald et al. ACS Med. Chem. Lett. 2014, 5, 1207-1212 for αvβ8 assay), with the following points of clarification. The following cell lines are used, with ligands in brackets: K562-αvβ3 (LAP-b1), K562-αvβ5 (Vitronectin), K562-αvβ6 (LAP-b1), K562-αvβ8 (LAP-b1), A549-αvβ1 (LAP-b1). The divalent cation used to facilitate adhesion is 2 mM MgCl2. Adhesion is quantified by cell labelling with the fluorescent dye BCECF-AM (Life Technologies), where cell suspensions at 3×10^6 cells/mL are incubated with 0.33 uL/mL of 30 mM BCECF-AM at 37° C. for 10 minutes, then 50 μL/well are dispensed into the 96-well assay plate. At the assay conclusion cells that adhered are lysed using 50 μL/well of 0.5% Triton X-100 in H2O to release fluorescence. Fluorescence intensity is detected using an Envision® plate reader (Perkin Elmer). For active antagonists in the assay, data is fitted to a 4 parameter logistic equation for IC50 determinations.

αvβ6 = biological target: T2, αvβ6 (Homo sapiens, UniProt P06756+P18564); test: Cell adhesion assay, K562-αvβ6 (LAP-b1); conditions: K562-αvβ6 cells, ligand LAP-b1, 2 mM MgCl2; for IC50: mean, read-out: αvβ6 pIC50 (mean affinity, cell Adhesion Assay) (converted)
T2 construct: expressed in transfected cells; host or cells: K562
Method: as §1

αvβ3 = biological target: T3, αvβ3 (Homo sapiens, UniProt P05106+P06756); test: Cell adhesion assay, K562-αvβ3 (LAP-b1); conditions: K562-αvβ3 cells, ligand LAP-b1, 2 mM MgCl2; for IC50: mean, read-out: αvβ3 pIC50 (mean affinity, cell Adhesion Assay) (converted)
T3 construct: expressed in transfected cells; host or cells: K562
Method: as §1

αvβ5 = biological target: T4, αvβ5 (Homo sapiens, UniProt P06756+P18084); test: Cell adhesion assay, K562-αvβ5 (Vitronectin); conditions: K562-αvβ5 cells, ligand Vitronectin, 2 mM MgCl2; for IC50: mean, read-out: αvβ5 pIC50 (mean affinity, cell Adhesion Assay) (converted)
T4 construct: expressed in transfected cells; host or cells: K562
Method: as §1

αvβ1 = biological target: T5, αvβ1 (Homo sapiens, UniProt P05556+P06756); test: Cell adhesion assay, A549-αvβ1 (LAP-b1); conditions: A549-αvβ1 cells, ligand LAP-b1, 2 mM MgCl2; for IC50: mean, read-out: αvβ1 pIC50 (mean affinity, cell Adhesion Assay) (converted)
T5 construct: host or cells: A549
Method: as §1

T3 sequence (P06756 31-889 limits assumed): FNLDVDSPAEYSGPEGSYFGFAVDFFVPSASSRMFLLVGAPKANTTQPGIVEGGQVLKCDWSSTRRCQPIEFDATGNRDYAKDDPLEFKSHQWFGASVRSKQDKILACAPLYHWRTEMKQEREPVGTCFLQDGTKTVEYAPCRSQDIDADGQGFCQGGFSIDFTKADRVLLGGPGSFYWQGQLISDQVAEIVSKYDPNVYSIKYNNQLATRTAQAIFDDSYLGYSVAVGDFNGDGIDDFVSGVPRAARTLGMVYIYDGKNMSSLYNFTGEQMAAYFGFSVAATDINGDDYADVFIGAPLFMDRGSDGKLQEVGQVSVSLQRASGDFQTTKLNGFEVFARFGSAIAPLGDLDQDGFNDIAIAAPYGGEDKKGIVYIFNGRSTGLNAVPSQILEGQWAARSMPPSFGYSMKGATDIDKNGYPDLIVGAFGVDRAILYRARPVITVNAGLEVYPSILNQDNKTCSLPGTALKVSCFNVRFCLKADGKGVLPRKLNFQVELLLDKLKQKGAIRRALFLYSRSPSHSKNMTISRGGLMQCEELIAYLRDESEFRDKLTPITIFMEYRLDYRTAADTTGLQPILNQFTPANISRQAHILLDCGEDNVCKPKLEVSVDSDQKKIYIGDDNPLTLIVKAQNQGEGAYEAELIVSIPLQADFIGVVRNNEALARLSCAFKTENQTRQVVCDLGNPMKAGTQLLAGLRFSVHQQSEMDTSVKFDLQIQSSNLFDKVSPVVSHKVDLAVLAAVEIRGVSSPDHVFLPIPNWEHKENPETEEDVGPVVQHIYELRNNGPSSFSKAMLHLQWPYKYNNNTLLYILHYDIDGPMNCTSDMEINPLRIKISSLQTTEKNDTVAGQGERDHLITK
T3 sequence (P06756 891-1048 partner limits assumed): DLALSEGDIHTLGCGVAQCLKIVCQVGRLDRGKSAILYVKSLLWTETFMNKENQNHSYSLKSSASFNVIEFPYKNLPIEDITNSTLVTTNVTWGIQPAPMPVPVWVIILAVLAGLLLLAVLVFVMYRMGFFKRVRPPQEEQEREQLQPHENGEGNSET
T3 sequence (P05106 27-788): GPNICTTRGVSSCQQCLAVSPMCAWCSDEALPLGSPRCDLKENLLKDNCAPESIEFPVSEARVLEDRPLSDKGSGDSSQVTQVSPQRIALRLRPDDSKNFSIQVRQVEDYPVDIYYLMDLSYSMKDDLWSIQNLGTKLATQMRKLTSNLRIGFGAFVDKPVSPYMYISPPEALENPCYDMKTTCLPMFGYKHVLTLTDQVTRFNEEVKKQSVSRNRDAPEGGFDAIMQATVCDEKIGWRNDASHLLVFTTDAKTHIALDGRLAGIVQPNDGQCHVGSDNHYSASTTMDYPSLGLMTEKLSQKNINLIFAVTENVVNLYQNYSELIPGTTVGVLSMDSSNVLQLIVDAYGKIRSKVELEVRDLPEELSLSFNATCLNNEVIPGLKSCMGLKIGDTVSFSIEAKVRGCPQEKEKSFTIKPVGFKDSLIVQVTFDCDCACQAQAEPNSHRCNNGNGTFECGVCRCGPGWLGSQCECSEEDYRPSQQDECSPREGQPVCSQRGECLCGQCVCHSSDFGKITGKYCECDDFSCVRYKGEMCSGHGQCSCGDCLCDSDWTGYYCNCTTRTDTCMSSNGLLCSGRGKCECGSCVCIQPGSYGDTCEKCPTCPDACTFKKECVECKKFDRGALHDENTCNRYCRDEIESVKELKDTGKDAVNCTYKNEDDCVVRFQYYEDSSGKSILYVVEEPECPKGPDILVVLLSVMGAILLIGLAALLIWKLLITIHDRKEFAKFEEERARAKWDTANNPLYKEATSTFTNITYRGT
T4 sequence (P06756 31-889 limits assumed): as the sequence (P06756 31-889 limits assumed) above
T4 sequence (P06756 891-1048 partner limits assumed): as the sequence (P06756 891-1048 partner limits assumed) above
T4 sequence (P18084 24-799): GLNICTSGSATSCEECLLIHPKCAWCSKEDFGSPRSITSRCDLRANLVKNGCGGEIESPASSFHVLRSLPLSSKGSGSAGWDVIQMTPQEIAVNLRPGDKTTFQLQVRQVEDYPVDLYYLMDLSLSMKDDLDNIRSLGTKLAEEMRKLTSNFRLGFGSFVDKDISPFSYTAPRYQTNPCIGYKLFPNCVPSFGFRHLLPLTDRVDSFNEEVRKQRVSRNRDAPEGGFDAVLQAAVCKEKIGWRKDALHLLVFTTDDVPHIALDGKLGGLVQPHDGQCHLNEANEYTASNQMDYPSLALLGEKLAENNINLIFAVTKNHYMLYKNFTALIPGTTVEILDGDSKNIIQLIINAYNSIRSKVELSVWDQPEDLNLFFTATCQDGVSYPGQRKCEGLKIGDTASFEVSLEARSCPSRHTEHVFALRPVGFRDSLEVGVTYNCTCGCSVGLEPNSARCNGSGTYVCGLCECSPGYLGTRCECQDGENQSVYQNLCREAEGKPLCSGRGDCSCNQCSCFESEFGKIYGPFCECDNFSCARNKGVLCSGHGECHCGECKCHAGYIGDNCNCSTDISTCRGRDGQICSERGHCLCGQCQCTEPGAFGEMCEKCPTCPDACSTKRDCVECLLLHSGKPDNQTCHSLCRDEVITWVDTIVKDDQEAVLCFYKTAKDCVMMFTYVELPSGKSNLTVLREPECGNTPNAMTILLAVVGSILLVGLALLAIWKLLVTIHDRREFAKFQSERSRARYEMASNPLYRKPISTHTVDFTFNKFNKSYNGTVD
T5 sequence (P06756 31-889 limits assumed): as the sequence (P06756 31-889 limits assumed) above
T5 sequence (P06756 891-1048 partner limits assumed): as the sequence (P06756 891-1048 partner limits assumed) above
T5 sequence (P05556 21-798): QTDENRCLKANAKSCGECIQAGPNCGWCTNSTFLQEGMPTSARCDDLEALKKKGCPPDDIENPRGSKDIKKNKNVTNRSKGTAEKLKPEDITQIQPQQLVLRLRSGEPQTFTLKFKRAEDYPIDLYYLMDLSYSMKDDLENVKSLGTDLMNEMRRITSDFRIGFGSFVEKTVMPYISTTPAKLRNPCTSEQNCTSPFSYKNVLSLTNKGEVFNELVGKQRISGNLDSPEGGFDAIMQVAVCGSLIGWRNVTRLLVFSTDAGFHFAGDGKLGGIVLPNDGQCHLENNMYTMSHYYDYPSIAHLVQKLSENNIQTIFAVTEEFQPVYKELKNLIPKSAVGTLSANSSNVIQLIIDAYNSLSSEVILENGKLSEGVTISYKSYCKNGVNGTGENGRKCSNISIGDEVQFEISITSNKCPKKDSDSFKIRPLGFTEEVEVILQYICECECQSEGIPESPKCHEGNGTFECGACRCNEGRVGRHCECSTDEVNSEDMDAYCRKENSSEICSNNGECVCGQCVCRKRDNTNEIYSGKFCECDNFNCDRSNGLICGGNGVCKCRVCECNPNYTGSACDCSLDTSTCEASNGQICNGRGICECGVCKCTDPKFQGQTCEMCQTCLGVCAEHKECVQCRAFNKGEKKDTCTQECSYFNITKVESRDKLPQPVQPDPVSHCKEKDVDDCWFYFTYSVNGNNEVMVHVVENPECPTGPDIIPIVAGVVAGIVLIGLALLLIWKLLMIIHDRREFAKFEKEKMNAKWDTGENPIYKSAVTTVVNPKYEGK
T2 sequence (P06756 31-889 limits assumed): as the sequence (P06756 31-889 limits assumed) above
T2 sequence (P06756 891-1048 partner limits assumed): as the sequence (P06756 891-1048 partner limits assumed) above
T2 sequence (P18564 22-788): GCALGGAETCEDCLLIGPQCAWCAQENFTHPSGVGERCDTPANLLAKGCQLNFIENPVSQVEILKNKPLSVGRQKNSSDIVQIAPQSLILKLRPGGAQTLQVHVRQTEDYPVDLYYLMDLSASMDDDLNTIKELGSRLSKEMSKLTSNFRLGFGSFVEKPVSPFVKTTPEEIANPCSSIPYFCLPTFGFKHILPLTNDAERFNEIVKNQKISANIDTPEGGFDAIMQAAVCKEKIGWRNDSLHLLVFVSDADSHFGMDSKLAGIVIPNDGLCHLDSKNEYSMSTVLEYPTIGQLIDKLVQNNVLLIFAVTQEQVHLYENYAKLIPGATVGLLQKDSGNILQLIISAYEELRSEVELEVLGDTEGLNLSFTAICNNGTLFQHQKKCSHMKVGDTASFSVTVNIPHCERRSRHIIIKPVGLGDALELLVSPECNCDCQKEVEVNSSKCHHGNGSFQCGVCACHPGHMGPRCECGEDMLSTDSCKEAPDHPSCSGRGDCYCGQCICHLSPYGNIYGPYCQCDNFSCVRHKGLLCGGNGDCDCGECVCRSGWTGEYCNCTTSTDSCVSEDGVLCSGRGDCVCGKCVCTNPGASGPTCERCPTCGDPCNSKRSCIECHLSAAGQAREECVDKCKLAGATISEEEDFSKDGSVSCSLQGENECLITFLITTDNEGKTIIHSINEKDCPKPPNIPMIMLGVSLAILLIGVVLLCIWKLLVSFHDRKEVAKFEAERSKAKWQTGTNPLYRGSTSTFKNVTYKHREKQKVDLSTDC

SMILES | IC50 (αvβ8) | IC50 (αvβ6) | IC50 (αvβ3) | IC50 (αvβ5) | IC50 (αvβ1) | αvβ3 pIC50 (mean affinity, cell Adhesion Assay) (αvβ3) | αvβ5 pIC50 (mean affinity, cell Adhesion Assay) (αvβ5) | αvβ1 pIC50 (mean affinity, cell Adhesion Assay) (αvβ1) | αvβ8 pIC50 (mean affinity, cell Adhesion Assay) (αvβ8) | αvβ6 pIC50 (mean affinity, cell Adhesion Assay) (αvβ6)
O=C(O)C[C@H](CN1CC[C@@](F)(CCc2ccc3c(n2)NCCC3)C1)c1cccc(C2CCOC2)c1 (single isomer, unassigned; isomer 1) [Example 10] | 20 nM | 12.6 nM | 63.1 nM | 79.4 nM | 398 nM |  |  |  |  | 
O=C(O)C[C@H](CN1CC[C@@](F)(CCc2ccc3c(n2)NCCC3)C1)c1cccc(C2CCOC2)c1 (single isomer, unassigned; isomer 2) [Example 11] |  |  |  | 126 nM | 126 nM |  |  |  |  | 
O=C(O)C[C@H](CN1CC[C@@](F)(CCc2ccc3c(n2)NCCC3)C1)c1cccc(OC[C@H]2CCCO2)c1 [Example 1, (S)-4-((S)-3-Fluoro-3-(2-(5,6,7,8-tetrahydro-1,8-naphthyridin-2-yl)ethyl)pyrrolidin-1-yl)-3-(3-(((R)-tetrahydrofuran-2-yl)methoxy)phenyl)butanoic acid] | 100 nM | 25.1 nM | 79.4 nM | 251 nM | 2000 nM |  |  |  |  | 
O=C(O)C[C@H](CN1CC[C@@](F)(CCc2ccc3c(n2)NCCC3)C1)c1cccc(OC[C@@H]2CCCO2)c1 [Example 2, (S)-4-((S)-3-Fluoro-3-(2-(5,6,7,8-tetrahydro-1,8-naphthyridin-2-yl)ethyl)pyrrolidin-1-yl)-3-(3-(((S)-tetrahydrofuran-2-yl)methoxy)phenyl)butanoic acid] | 100 nM | 15.8 nM |  | 100 nM | 1000 nM |  |  |  |  | 
O=C(O)C[C@H](CN1CC[C@@](F)(CCc2ccc3c(n2)NCCC3)C1)c1cccc(O[C@@H]2CCOC2)c1 [Example 3, (S)-4-((S)-3-Fluoro-3-(2-(5,6,7,8-tetrahydro-1,8-naphthyridin-2-yl)ethyl)pyrrolidin-1-yl)-3-(3-(((R)-tetrahydrofuran-3-yl)oxy)phenyl)butanoic acid] | 50.1 nM | 5.01 nM | 100 nM | 39.8 nM | 200 nM |  |  |  |  | 
O=C(O)C[C@H](CN1CC[C@@](F)(CCc2ccc3c(n2)NCCC3)C1)c1cccc(O[C@H]2CCOC2)c1 [Example 4, (S)-4-((S)-3-Fluoro-3-(2-(5,6,7,8-tetrahydro-1,8-naphthyridin-2-yl)ethyl)pyrrolidin-1-yl)-3-(3-(((S)-tetrahydrofuran-3-yl)oxy)phenyl)butanoic acid] | 31.6 nM | 5.01 nM | 50.1 nM | 79.4 nM | 100 nM |  |  |  |  | 
CO[C@H](C)COc1cccc([C@H](CC(=O)O)CN2CC[C@@](F)(CCc3ccc4c(n3)NCCC4)C2)c1 [Example 5] | 31.6 nM | 12.6 nM | 31.6 nM | 25.1 nM | 200 nM |  |  |  |  | 
CO[C@@H](C)COc1cccc([C@H](CC(=O)O)CN2CC[C@@](F)(CCc3ccc4c(n3)NCCC4)C2)c1 [Example 6] | 39.8 nM | 12.6 nM | 63.1 nM | 316 nM | 126 nM |  |  |  |  | 
COCC(C)(C)Oc1cccc([C@H](CC(=O)O)CN2CC[C@@](F)(CCc3ccc4c(n3)NCCC4)C2)c1 [Example 7, (S)-4-((S)-3-Fluoro-3-(2-(5,6,7,8-tetrahydro-1,8-naphthyridin-2-yl)ethyl)pyrrolidin-1-yl)-3-(3-((1-methoxy-2-methylpropan-2-yl)oxy)phenyl)butanoic acid] | 50.1 nM | 20 nM | 79.4 nM | 63.1 nM | 63.1 nM |  |  |  |  | 
O=C(O)C[C@H](CN1CC[C@@](F)(CCc2ccc3c(n2)NCCC3)C1)c1cccc(OC2COC2)c1 [Example 8, (S)-4-((S)-3-Fluoro-3-(2-(5,6,7,8-tetrahydro-1,8-naphthyridin-2-yl)ethyl)pyrrolidin-1-yl)-3-(3-(oxetan-3-yloxy)phenyl)butanoic acid] | 31.6 nM | 12.6 nM | 100 nM | 63.1 nM | 398 nM |  |  |  |  | 
COCCOc1cc(OCCOC)cc([C@H](CC(=O)O)CN2CC[C@@](F)(CCc3ccc4c(n3)NCCC4)C2)c1 [Example 9, (S)-3-(3,5-Bis(2-methoxyethoxy)phenyl)-4-((S)-3-fluoro-3-(2-(5,6,7,8-tetrahydro-1,8-naphthyridin-2-yl)ethyl)pyrrolidin-1-yl)butanoic acid] | 50.1 nM | 10 nM |  |  | 1000 nM |  |  |  |  | 
O=C(O)C[C@H](CN1CC[C@@](F)(CCc2ccc3c(n2)NCCC3)C1)c1cccc(OCC2COC2)c1 [Example 12, (S)-4-((S)-3-Fluoro-3-(2-(5,6,7,8-tetrahydro-1,8-naphthyridin-2-yl)ethyl)pyrrolidin-1-yl)-3-(3-(oxetan-3-ylmethoxy)phenyl)butanoic acid] | 25.1 nM | 15.8 nM | 63.1 nM | 31.6 nM | 251 nM |  |  |  |  | 
COCCOc1cc(OCCF)cc(C(CC(=O)O)CN2CC[C@@](F)(CCc3ccc4c(n3)NCCC4)C2)c1 (stereo partly drawn) [Example 13, 4-((S)-3-Fluoro-3-(2-(5,6,7,8-tetrahydro-1,8-naphthyridin-2-yl)ethyl)pyrrolidin-1-yl)-3-(3-(2-fluoroethoxy)-5-(2-methoxyethoxy)phenyl)butanoic acid] | 31.6 nM | 10 nM | 79.4 nM | 100 nM | 126 nM |  |  |  |  | 
COCCOc1ccc(F)c(C(CC(=O)O)CN2CC[C@@](F)(CCc3ccc4c(n3)NCCC4)C2)c1 (stereo partly drawn) [Example 14, 4-((S)-3-Fluoro-3-(2-(5,6,7,8-tetrahydro-1,8-naphthyridin-2-yl)ethyl)pyrrolidin-1-yl)-3-(2-fluoro-5-(2-methoxyethoxy)phenyl)butanoic acid] | 158 nM | 25.1 nM | 501 nM | 25.1 nM | 2000 nM |  |  |  |  | 
O=C(O)C[C@H](CN1CC[C@@](F)(CCc2ccc3c(n2)NCCC3)C1)c1cccc(OC2CCOCC2)c1 [Example 15, (S)-4-((S)-3-Fluoro-3-(2-(5,6,7,8-tetrahydro-1,8-naphthyridin-2-yl)ethyl)pyrrolidin-1-yl)-3-(3-((tetrahydro-2H-pyran-4-yl)oxy)phenyl)butanoic acid] |  | 10 nM and 12.6 nM | 20 nM | 39.8 nM | 316 nM |  |  |  |  | 
O=C(O)CC(O)(CC(=O)O)C(=O)O.O=C(O)C[C@H](CN1CC[C@@](F)(CCc2ccc3c(n2)NCCC3)C1)c1cccc(O[C@@H]2CCOC2)c1 [Example 16, (S)-4-((S)-3-Fluoro-3-(2-(5,6,7,8-tetrahydro-1,8-naphthyridin-2-yl)ethyl)pyrrolidin-1-yl)-3-(3-(((R)-tetrahydrofuran-3-yl)oxy)phenyl)butanoic acid (1:1) citrate salt] |  |  |  |  |  | 7.6 | 7.4 | 6.8 |  | 
O=C(O)/C=C\C(=O)O.O=C(O)C[C@H](CN1CC[C@@](F)(CCc2ccc3c(n2)NCCC3)C1)c1cccc(O[C@@H]2CCOC2)c1 [Example 17, (S)-4-((S)-3-Fluoro-3-(2-(5,6,7,8-tetrahydro-1,8-naphthyridin-2-yl)ethyl)pyrrolidin-1-yl)-3-(3-(((R)-tetrahydrofuran-3-yl)oxy)phenyl)butanoic acid (1:1) maleate salt] |  |  |  |  |  | 7.3 | 8.1 | 6.9 | 7.7 | 8.2
O=C(O)CC(O)(CC(=O)O)C(=O)O.O=C(O)C[C@H](CN1CC[C@@](F)(CCc2ccc3c(n2)NCCC3)C1)c1cccc(O[C@H]2CCOC2)c1 [Example 18, (S)-4-((S)-3-Fluoro-3-(2-(5,6,7,8-tetrahydro-1,8-naphthyridin-2-yl)ethyl)pyrrolidin-1-yl)-3-(3-(((S)-tetrahydrofuran-3-yl)oxy)phenyl)butanoic acid (1:1) citrate salt] |  |  |  |  |  | 7.3 | 7.5 | 6.4 | 7.7 | 8.3
